# Assay results published in patent US20100144854A1 (priority 2007, published 2010).
# Assays:
# [1] = test system: primary generalized amyloidosis; experiment: Example 10: patient with primary generalized amyloidosis treated with rhodamine 6G; type: in vivo, human; details: Patient T, 67
# Description: Patient T. Diagnosis: Ischemic heart disease: Atherosclerosis, cardiosclerosis, atrial fibrillation. Amyloidosis? On account of deterioration in the patient's condition (increased frequency of dyspnea) the patient was hospitalised. On admission the patient's overall condition was fairly serious. Skin and visible mucous membranes normal colour, moderately cyanosed lips. Heart sounds—muffled, arrhythmia—atrial fibrillation with frequency of ventricular contractions 110 beats/min (pulse deficiency 12), blood pressure 100/60 mm Hg. In left lung, dull percussion sound below the middle of the shoulder blade; no breathing detected above this region. Individual moist rales heard to the right in the projection of the lower lobe. Diseased liver, lower edge extending 4 cm below the level of the costal margin. Edema of the legs as far as middle third of femur and anasarca were diagnosed.
# Low voltage waves recorded on ECG, taxistological shape of atrial fibrillation, QS in leads V1-V4. […] Disturbed diastolic relaxation of myocardium of left ventricle was noted. […] In the biochemical blood analysis the level of total protein was reduced (down to 50 g/l), while the levels of urea (to 9.66 mmol/l) and creatinine (to […]) were both raised. […] Ultrasound investigation of organs of the abdominal cavity: enlarged liver (right lobe—16.9 cm), echogenicity reduced, and irregular structure; portal vein−15 mm. Gall bladder: 52×22 mm, wall up to 4 mm, unobstructed lumen. Pancreas: uniform, echogenicity raised, focalized diffuse changes. […] Calyculate-pelvic system of both kidneys not enlarged. Fogging of the lung pattern and diffuse changes were observed on an anterioposterior chest X-ray. A needle liver biopsy was performed in order to exclude amyloidosis. Signs of primary amyloidosis were detected. […] 5% suppositories in the rectum at night. Treatment according to this regimen was continued for 2 months. […] Intravenous administration twice a week. The course of treatment lasted 2 months. […] The liver and kidneys were normal size on an ultrasound scan.
# [2] = test system: adenocarcinoma of the right ovary; experiment: Example 3: patient with ovarian adenocarcinoma treated with rhodamine 6G; type: in vivo, human; details: Patient T, 54
# Description: Patient T. Diagnosis: adenocarcinoma of the right ovary. Metastases in the liver. A hysterectomy had been carried out 4 years before. There was a recurrence of the cancer after a year. The patient complained of pain in the pelvis and difficulty in urination. […] The patient's condition was moderately severe; pale skin. […] The course of treatment lasted 3 months. During the treatment the tumor decreased in size to 1.2×0.9×0.3 cm. […] Blood analyses against the treatment background became normal over 2 months. A full course of treatment with the preparation was carried out over 6 months. During the course of the treatment the tumor in the region of the bladder and rectum disappeared.
substance,measurement,setting,value
"9-(2-ethoxycarbonyl)phenyl)-3,6-bis(ethylamino)2,7-dimethylxanthyl chloride [rhodamine 6G]",condition of the patient,"[1]; 5 g in 250 ml water three times a day, 5% suppositories, 2 months",gradually improved
same,"size of the heart, echocardiogram",[1]; after oral/rectal 2 months and 2 g i.v. twice a week 2 months,reduced
same,blood and urine analyses,[1]; after treatment,in the normal range
same,"dilation of the left and right atria, echocardiogram",[1]; after treatment,significantly reduced
same,fibrillation on the EKG,[1]; after treatment,no fibrillation
same,"liver and kidneys, ultrasound scan",[1]; after treatment,normal size
same,patient's complaints,[1]; after treatment,no complaints
same,voltage waves on the EKG,[1]; after treatment,in the normal range
same,body weight,[2]; after treatment,regained weight
same,tumor in the region of the bladder and rectum,[2]; full course over 6 months,disappeared
same,blood analyses against the treatment background,[2]; over 2 months,became normal
same,stools and feeling of pain,[2]; second week after start,the stools became normal and the feeling of pain disappeared
